Source: patent US12433860B2, “Treatment of multiple sclerosis comprising DHODH inhibitors” (Immunic AG, priority 2021, dated 2025)
“And” between values parts separate entries of the source, which are not always exact repeats. Equal entries are not always repeated. Structures can show the parent of a compound that is named as a salt.

Tests used:
[1] = system: secretion of interleukin (IL)-17 and IFNγ; conditions: in vitro; cited from earlier work
[2] = system: T-lymphocyte proliferation; conditions: in vitro; cited from earlier work
[3] = system: patients with RRMS and evidence of active disease; assay: EMPhASIS Cohort 2 interim analysis: MRI lesions up to Week 12; format: in vivo, human
Procedure: Given the relative equal performance of the two doses in Cohort 1 (see Example 1) and to allow for pharmacodynamic modeling of the dose-response relationship, a lower dose was investigated. The objective of the Cohort 2 sub-trial is to obtain exploratory data on the dose response of IMU-838 by evaluating a lower IMU-838 dose i.e. 10 mg/day to provide additional data for pharmacodynamic modelling. The 10 mg IMU-838 dose was selected since it is more than 50% lower than the lowest effective dose of Cohort 1 (30 mg IMU 838) and avoids undesired overlap in serum trough levels for pharmacodynamic modelling of the pooled Cohort 1 and 2 data. A small placebo arm is included to provide blinding of patients and to relate Cohort 2 treatment effects. Assessments and procedures mostly follow those described for the main treatment period in the Cohort 1 main trial. Trial objectives and endpoints: The objective of this sub-trial is to obtain more efficacy and safety data of IMU-838 in patients with RRMS and to allow pharmacodynamic modelling of the dose response. The endpoints analyzed in this interim analysis were between-treatment differences in the following MRI parameters: cumulative number of CUA MRI lesions up to Week 12; cumulative number of new Gadolinium enhancing (Gd+) lesions up to Week 12; proportion of patients without CUA MRI lesions until Week 12; and proportion of patients without new Gd+ lesions until Week 12. Overall trial design and plan: This is a double-blind, placebo-controlled, randomized, parallel-group sub-trial of P2 IMU-838 MS to assess the efficacy and safety of once-daily oral 10 mg/day IMU-838 compared to placebo in patients with RRMS and evidence of active disease. The sub-trial consists of a blinded main treatment period and an open-label, extended treatment period (FIG. 2). Patients were randomized 1:4 to placebo and 10 mg IMU-838 on Day 0.

[4] = in vivo; cited from earlier work
[5] = system: patients with relapsing-remitting multiple sclerosis; conditions: in vivo
Procedure: (§1) Adverse events were assessed at screening, baseline, day 7, and weeks 6, 12, 18, and 24 and all unscheduled clinic visits. Routine clinical chemistries, haematology, liver function tests, and urinalysis were collected at baseline, day 7, and weeks 6, 12, 18, and 24. Vital signs and electrocardiogramere conducted at screening and regularly scheduled intervals. Adverse events of special interest included: red blood cells in urine, haematuria, and retroperitoneal colicky pain with suspected or confirmed nephrolithiasis.
(§2) The intention-to-treat population was defined as all randomized patients who received at least one dose of placebo or vidofludimus calcium and were analyzed by the groups to which they were randomized. The safety population included all randomized patients who received at least one dose of placebo or vidofludimus calcium and was analyzed by the treatment assigned. The per-protocol population was defined as all randomized patients receiving at least one dose of placebo or vidofludimus calcium and no violations of major protocol criteria during treatment. The modified intention-to-treat population was defined as all randomized patients receiving at least one dose of placebo or vidofludimus calcium and having all MRI scans available for analysis.

[6] = system: patients with relapsing-remitting multiple sclerosis; assay: EMPhASIS Cohort 1: safety and tolerability; conditions: for proportion of patients with at least one treatment-emergent adverse event: 24 weeks, placebo 44%; for patients who discontinued the study treatment prematurely: placebo 7%
Procedure: as §1, §2

[7] = system: experimental autoimmune encephalomyelitis; conditions: rodents; cited from earlier work
[8] = system: patients with RRMS and evidence of active disease; assay: EMPhASIS Cohort 2 interim analysis: MRI lesions up to Week 12; format: in vivo, human; conditions: for Cumulative number of New Gd+ lesions up to Week 12, Mean / Cumulative number of CUA MRI lesions up to Week 12, Mean / Patients without CUA MRI lesions over 12 weeks / Patients without New Gd+ lesions over 12 weeks: mFAS; for Cumulative number of New Gd+ lesions up to Week 12, Mean: placebo 3.5; for Cumulative number of CUA MRI lesions up to Week 12, Mean: placebo 4.4; for Patients without CUA MRI lesions over 12 weeks: placebo 41.4; for Patients without CUA MRI lesions over 12 weeks / Patients without New Gd+ lesions over 12 weeks: listed as IMU-838; for Patients without New Gd+ lesions over 12 weeks: placebo 49.3

## COc1cccc(-c2ccc(NC(=O)C3=C(C(=O)O)CCC3)c(F)c2)c1 [vidofludimus calcium, 1-cyclopentene-1-carboxylic acid, 2-(((3-fluoro-3′-methoxy(1,1′-biphenyl)-4-yl)amino)carbonyl)-, calcium salt (2:1)]
[1]
  secretion of interleukin (IL)-17 and IFNγ: inhibited
[2]
  T-lymphocyte proliferation: inhibited
[3]; 10 mg
  suppression of CUA lesions at Week 12 compared with placebo: 32%
[3]; 10 mg (C2), mFAS, placebo 4.4
  Cumulative number of CUA MRI lesions up to Week 12, Mean: 3.0
[3]; 10 mg (C2), mFAS, placebo 41.4, listed as IMU-838
  Patients without CUA MRI lesions over 12 weeks: 46% and 45.7%
[3]; 10 mg (C2), mFAS, placebo 49.3, listed as IMU-838
  Patients without New Gd+ lesions over 12 weeks: 51% and 51.1%
[3]; totality of Cohort 1 data and Week 12 interim analysis of Cohort 2
  lowest effective dose in patients with rrMS: 30 mg
[4]
  half-life: approximately 30 h
[5]
  deaths during the trial: No deaths occurred
[6]; 30 mg group, considered unrelated to treatment
  patients experiencing serious adverse events: 2 patients
[6]; 30 mg
  proportion of patients with at least one treatment-emergent adverse event: 45%
  patients who discontinued the study treatment prematurely: 3%
[6]; 45 mg group
  patients who met hepatotoxicity stopping rules: two
[6]; 45 mg
  proportion of patients with at least one treatment-emergent adverse event: 41%
  patients who discontinued the study treatment prematurely: 6%
[6]; across treatment groups
  Serious adverse events: 0-3%
[6]; any dose, placebo 1%
  Renal treatment-emergent events, patients: 2%
[6]; any dose, placebo 4%
  Hepatic treatment-emergent adverse events, patients: 4%
[6]; any dose, ureterolithiasis, placebo 1%
  Adverse events of special interest, patients: 1%
[6]; both doses (30 mg and 45 mg)
  tolerability: well tolerated
[6]; in vivo
  cardiovascular, haematological, infectious or malignancy-related adverse events: No remarkable cardiovascular, haematological, infectious or malignancy-related adverse events
  changes in haematologic laboratory values (neutrophil, lymphocyte, leukocyte count): No changes
[6]; over 24 weeks, any treatment group
  changes in serum uric acid: No marked changes
[6]; vidofludimus calcium groups, placebo n=3
  discontinuations attributable to treatment-emergent adverse events: 2 patients
[6]; vidofludimus calcium-treated patients
  Alopecia, fatigue, rash, and cystitis treatment-emergent adverse events not recorded in placebo-treated patients: 1-4%
[7]
  activity in experimental autoimmune encephalomyelitis: dose-dependent activity
[8]; 10 mg
  suppression of Gd+ lesions at Week 12 compared with placebo: 40%
[8]; 10 mg (C2)
  Cumulative number of New Gd+ lesions up to Week 12, Mean: 2.0
[8]; 30 mg
  suppression of CUA lesions at Week 12 compared with placebo: 68%
  suppression of Gd+ lesions at Week 12 compared with placebo: 66%
[8]; 30 mg (C1)
  Cumulative number of New Gd+ lesions up to Week 12, Mean: 1.2
  Cumulative number of CUA MRI lesions up to Week 12, Mean: 1.4
  Patients without CUA MRI lesions over 12 weeks: 62% and 61.5%
  Patients without New Gd+ lesions over 12 weeks: 66% and 66.2%
[8]; 45 mg
  suppression of CUA lesions at Week 12 compared with placebo: 75%
  suppression of Gd+ lesions at Week 12 compared with placebo: 74%
[8]; 45 mg (C1)
  Cumulative number of New Gd+ lesions up to Week 12, Mean: 0.9
  Cumulative number of CUA MRI lesions up to Week 12, Mean: 1.1
  Patients without CUA MRI lesions over 12 weeks: 55% and 54.5%
  Patients without New Gd+ lesions over 12 weeks: 61% and 60.6%
